Results as given in US20250049927A1, “MODIFIED OLIGONUCLEOTIDE-DRUG CONJUGATE AND USE THEREOF” (INTEROLIGO CORPORATION., priority 2021, published 2025).

Assays:
in vivo = settings: male, Sprague-Dawley, rat, iv, 2 mg/kg
Protocol: Specifically, Sprague-Dawley male rats (8 weeks old, purchased from Youngbio) were acclimatized for 1 week in the animal room of the Catholic University Songsim Campus, and then pharmacokinetic experiments were performed. Rats were induced with isoflurane, an inhalation anesthetic, and PE50 (polyethylene tubing, Clay Adams, Becton Dickinson, NJ, USA) was inserted into the carotid (for blood collection) and jugular vein (for drug administration), followed by suturing with suture, and then end portions thereof were fixed to the back of the neck. During the surgery, anesthesia was maintained using ether, and about 0.5 mL of physiological saline solution containing heparin (20 units/mL) was injected to prevent blood from coagulating in the cannula. After completing the surgery, each rat was placed in a metabolic cage and allowed to fully recover from the anesthetic (for 4-5 hours). Then, the rats were divided into three groups of a group administered with Example 9 (IO176) alone (n=6), and a group administered with MMAE alone (n=7), and a group administered with gemcitabine alone (n=6), and each sample (Example 9, MMAE alone, gemcitabine alone) was administered into the rats. All of Example 9, MMAE and gemcitabine were dissolved in physiological saline at 2 mL per kg of body weight and administered into the jugular vein at doses of 40 mg/kg, 4 mg/kg and 2 mg/kg, respectively. When collecting blood, in order to prevent gemcitabine in 0.2 mL of blood from being converted into metabolites by cytidine deaminase, a light-shielding Eppendorf tube was prepared in which 2 μL of a solution containing tetrahydrouridine (hereinafter referred to as THU), a cytidine deaminase inhibitor, dissolved in distilled water at a concentration of 10 mg/mL was added in advance. […] Immediately after completing the blood collection, the plasma that had been stored in an ice-bath was quickly centrifuged at 4° C., and 100 μL of the plasma was dispensed into the light-shielding Eppendorf tube. The dispensed plasma was quickly stored in an ice-bath and maintained at −80° C. until LC-MS/MS analysis was performed. After collection of blood from the carotid, the rats were euthanized in a CO2 gas chamber.
• Analysis equipment: Agilent 1290 series HPLC, Qtrap 5500 LC-MS/MS • Detector: Tandem mass spectrometer (triple quadrouple type) • Ion source: Electrospray ionization (positive ion mode) • Desolvation temperature: 500° C. • Nebulizing gas: Nitrogen, Collision gas: Nitrogen • Quantitation: MRM (multiple reaction monitoring) mode • Stationary phase: Hypersil gold C18 column (2.1×100 mm, 1.9 μm, Thermo) Fisher Scientific Inc., Boston, USA) • Stationary phase temperature: 40° C. • Mobile phase: Distilled water (A) and acetonitrile (B) respectively containing 0.1% formic acid (95:5, v/v) (see [Table below) • Flow rate: 0.22 mL/min • Mass parameters: See [Table 8] below (CE: Collision energy)
Each of gemcitabine and dFdU standard product was dissolved in distilled water to prepare 400 μg/mL and 700 μg/mL of storage solutions and store them frozen. Then, the storage solutions were diluted with tertiary distilled water to prepare working solutions so that the concentrations were 0.200, 0.400, 0.800, 2.00, 10.0 and 40.0 μg/mL, respectively, followed by storing them in a refrigerator. 5′-Deoxy-5-fluorocytidine, an internal standard (IS), was dissolved in acetonitrile to prepare 50 ng/mL of working solution. The working solution of gemcitabine and dFdU was added to rat blank plasma containing THU to prepare standard plasma samples so that the plasma concentrations of gemcitabine and dFdU were 10, 20, 40, 100, 500 and 2000 ng/mL, respectively.
150 μL of 5′-Deoxy-5-fluorocytidine (50 ng/mL), the internal standard dissolved in acetonitrile, was added to 20 μL of rat plasma, and vortexed for 10 minutes, followed by centrifuging at 14,000 rpm at 4° C. for 5 minutes.

[1] = system: BxPC-3 pancreatic cancer cell lines; assay: Pancreatic cancer cell growth inhibition, WST assay; assay type: cell-based; settings: BxPC-3, 72 hours treatment, absorbance 450 nm
Protocol: The in vitro anticancer efficacy of the modified oligonucleotide-drug conjugates was verified using pancreatic cancer cell lines. Pancreatic cancer cell lines (BxPC-3) were treated with the above-described examples and comparative examples at concentrations of 0, 0.01, 0.1, 1, 10, 100, 500 and 1000 μM, and the specific IC50 measurement method and measurement results are as follows.
All cell lines were cultured in a 5% CO2 incubator at 37° C. The BxPC-3 pancreatic cancer cell lines were cultured using a medium containing 10% FBS and 1% antibiotics put into ATCC modified RPMI-1640 (Thermo Scientific, USA). The medium was replaced once every 2-3 days, and passage-cultured at a time when about 70-90% of a culture dish was filled with the cells. First, the cells were washed with PBS, then 0.05% Trypsin-EDTA was added and cultured at 37° C. for 2 minutes, and then a new medium was added to inactivate trypsin. The cells were separated from trypsin and medium using a centrifuge, then another new medium was added and passaged at a ratio of 1:4, followed by culturing the same. All cells were periodically checked for contamination by mycoplasma using a kit (Intron, Korea), and in vitro efficacy evaluation experiments were conducted using only cells in which contamination was not detected.
Using WST reagent (Dongin LS, Korea), an inhibitory effect on pancreatic cancer cell growth by drug treatment was confirmed and IC50 was measured. An orange coloring substance called formazan is produced in WST by mitochondrial dehydrogenase within cells, which is effective only in living cells. The specific test method is as follows.
The cells cultured by the above-described method were dispensed by 2×10^4 into each well of a 96-well culture vessel and cultured for 24 hours. The medium of the cells attached to the culture vessel was replaced with an ATCC modified RPMI-1640 medium containing 5% FBS, and samples of the above-described modified oligonucleotide-drug conjugates (Examples 1-7 and 9-12, and Comparative Example 1-7, respectively) were treated at concentrations of 0, 0.01, 0.1, 1, 10, 100, 500 and 1000 μM. After 72 hours, 10 μl of WST reagent was added to each well and reacted for 2 hours. The produced formazan was measured with an absorbance at 450 nm using a Glomax plate meter (Promega, USA), and IC50 was evaluated according to the protocol in the device. IC50 evaluation results and graphs illustrating the same are shown in Table 2 below and FIGS. 19 to 27 (in Table 2, M=Gemcitabine, and N=5-FdU).

Compound	IC50 [1] [nM]	also measured
Nc1ccn([C@@H]2O[C@H](CO)[C@@H](O)C2(F)F)c(=O)n1 [Gemcitabine, 2′,2′-difluoro-2′-deoxycytidine]		Vd (in vivo; in vivo): 2.73 ± 1.22 L/kg; AUC(0-inf) (in vivo; plasma): 7500 ng·h/mL; AUC(0-t) (in vivo; plasma): 7300 ng·h/mL; MRT (in vivo; plasma): 5.7 h; clearance (in vivo; plasma): 4.77 ± 1.43 mL/min/kg; half-life (in vivo; plasma): 6.8 ± 2.78 h
Comparative Example 1: control aptamer GGTGGTGGTGGTTGTGGTGGTGGTGG (SEQ ID NO: 1)	89900	
Comparative Example 2 (GGTGGTGGTGGTTGNGGTGGTGGTGG; paclitaxel conjugate; modified_base 15 OTHER; deoxyuridine(dU)-acrylamide-C6-NH2)	4590	
Comparative Example 3 (GGTGGTGGTGGTNGTGGTGGTGGTGG; paclitaxel via acrylamide-C6-NH-succinic acid linker; modified_base 13 OTHER; deoxyuridine(dU)-acrylamide-C6-NH2)	40	
Comparative Example 6: DM1 conjugated to U of GGTGGTGGTGGTUGTGGTGGTGGTGG (SEQ ID NO: 3); linker -acrylamide-C6-NH-SMCC- (DNA ggtggtggtggtngtggtggtggtgg; DM1 via acrylamide-C6-NH-SMCC linker; modified_base 13 OTHER; deoxyuridine(dU))	3010	
Example 1: paclitaxel conjugated to U of GGTGGTGGTGGUMGTGGTGGTGGTGG (SEQ ID NO: 4), M=Gemcitabine; linker -acrylamide-C6-NH-succinic acid- (DNA GGTGGTGGTGGNNGTGGTGGTGGTGG; paclitaxel via linker; gemcitabine at M; modified_base 12 OTHER; deoxyuridine(dU); modified_base 13 OTHER; Gemcitabine)	2210	
Example 2 (GGTGGTGGTGGNTNTGGTGGTGGTGG; paclitaxel via acrylamide-C6-NH-succinic acid linker; modified_base 12 OTHER; deoxyuridine(dU); modified_base 14 OTHER; gemcitabine)	230	
Example 3 (GGTGGTGGTGGTNNTGGTGGTGGTGG; paclitaxel via acrylamide-C6-NH-succinic acid linker on U; modified_base 13 OTHER; deoxyuridine(dU); modified_base 14 OTHER; gemcitabine)	1000	
Example 6: paclitaxel conjugated to U of GGTGGTGGTGGTUGTGGTGGTGGMGG (SEQ ID NO: 9), M=Gemcitabine; linker -acrylamide-C6-NH-succinic acid- (DNA GGTGGTGGTGGTNGTGGTGGTGGNGG; paclitaxel via linker; gemcitabine at M; modified_base 13 OTHER; deoxyuridine(dU); modified_base 24 OTHER; gemcitabine)	140	
Example 7 (GGTGGTGGTGGTTGNGGTGGTGGNGG; paclitaxel via acrylamide-C6-NH-succinic acid linker on U; modified_base 15 OTHER; deoxyuridine(dU); modified_base 24 OTHER; gemcitabine)	110	
Example 11: DM1 conjugated to U of GGTGGTGGTGGMUGMGGTGGTGGTGG (SEQ ID NO: 8), M=Gemcitabine; linker -acrylamide-C6-NH-SMCC- (DNA GGTGGTGGTGGNNGNGGTGGTGGTGG; gemcitabine nucleotides; DM1 via SMCC linker; modified_base 13 OTHER; deoxyuridine(dU); modified_base 12 OTHER; gemcitabine; modified_base 15 OTHER)	26700	
